The values below come from US7977322B2 (Vertex Pharmaceuticals Incorporated, priority 2004, dated 2011).

A value given as a limit tells only on which side of the number the result lay.

Broadly, the EC50 is the concentration that produces a half-maximal response.

For the test, the target named is T1, ΔF508-CFTR (Homo sapiens, UniProt P13569, DEL508-508).
T1 construct: expressed in transfected cells
The experiment in a line: Membrane potential optical (FRET/VIPR) assay, identification of correction compounds. The test is classed as cell-based. The settings on record: Table 3, assay not given; for Emax: read-out: % Activity / % Efficacy (relative efficacy). The text has this: I) Membrane Potential Optical Methods for Assaying ΔF508-CFTR Modulation Properties of Compounds
These voltage sensitive assays are based on the change in fluorescence resonant energy transfer (FRET) between the membrane-soluble, voltage-sensitive dye, DiSBAC2(3), and a fluorescent phospholipid, CC2-DMPE, which is attached to the outer leaflet of the plasma membrane and acts as a FRET donor. Changes in membrane potential (Vm) cause the negatively charged DiSBAC2(3) to redistribute across the plasma membrane and the amount of energy transfer from CC2-DMPE changes accordingly. The changes in fluorescence emission were monitored using VIPR™ II, which is an integrated liquid handler and fluorescent detector designed to conduct cell-based screens in 96- or 384-well microtiter plates.
Identification of Correction Compounds
To identify small molecules that correct the trafficking defect associated with ΔF508-CFTR; a single-addition HTS assay format was developed. The cells were incubated in serum-free medium for 16 hrs at 37° C. in the presence or absence (negative control) of test compound. As a positive control, cells plated in 384-well plates were incubated for 16 hrs at 27° C. to “temperature-correct” ΔF508-CFTR. The cells were subsequently rinsed 3× with Krebs Ringers solution and loaded with the voltage-sensitive dyes. To activate ΔF508-CFTR, 10 μM forskolin and the CFTR potentiator, genistein (20 μM), were added along with Cl^− free medium to each well. The addition of Cl^− free medium promoted Cl^− efflux in response to ΔF508-CFTR activation and the resulting membrane depolarization was optically monitored using the FRET-based voltage-sensor dyes.
• Bath Solution #1: (in mM) NaCl 160, KCl 4.5, CaCl2 2, MgCl2 1, HEPES 10, pH 7.4 with NaOH. • Chloride-free bath solution: Chloride salts in Bath Solution #1 are substituted with gluconate salts. • CC2-DMPE: Prepared as a 10 mM stock solution in DMSO and stored at −20° C. • DiSBAC2(3): Prepared as a 10 mM stock in DMSO and stored at −20° C.
NIH3T3 mouse fibroblasts stably expressing ΔF508-CFTR are used for optical measurements of membrane potential. The cells are maintained at 37° C. in 5% CO2 and 90% humidity in Dulbecco's modified Eagle's medium supplemented with 2 mM glutamine, 10% fetal bovine serum, 1×NEAA, β-ME, 1×pen/strep, and 25 mM HEPES in 175 cm^2 culture flasks. For all optical assays, the cells were seeded at 30,000/well in 384-well matrigel-coated plates and cultured for 2 hrs at 37° C. before culturing at 27° C. for 24 hrs. for the potentiator assay.

T1 sequence (P13569 with tags, fused parts or gaps DEL508-508): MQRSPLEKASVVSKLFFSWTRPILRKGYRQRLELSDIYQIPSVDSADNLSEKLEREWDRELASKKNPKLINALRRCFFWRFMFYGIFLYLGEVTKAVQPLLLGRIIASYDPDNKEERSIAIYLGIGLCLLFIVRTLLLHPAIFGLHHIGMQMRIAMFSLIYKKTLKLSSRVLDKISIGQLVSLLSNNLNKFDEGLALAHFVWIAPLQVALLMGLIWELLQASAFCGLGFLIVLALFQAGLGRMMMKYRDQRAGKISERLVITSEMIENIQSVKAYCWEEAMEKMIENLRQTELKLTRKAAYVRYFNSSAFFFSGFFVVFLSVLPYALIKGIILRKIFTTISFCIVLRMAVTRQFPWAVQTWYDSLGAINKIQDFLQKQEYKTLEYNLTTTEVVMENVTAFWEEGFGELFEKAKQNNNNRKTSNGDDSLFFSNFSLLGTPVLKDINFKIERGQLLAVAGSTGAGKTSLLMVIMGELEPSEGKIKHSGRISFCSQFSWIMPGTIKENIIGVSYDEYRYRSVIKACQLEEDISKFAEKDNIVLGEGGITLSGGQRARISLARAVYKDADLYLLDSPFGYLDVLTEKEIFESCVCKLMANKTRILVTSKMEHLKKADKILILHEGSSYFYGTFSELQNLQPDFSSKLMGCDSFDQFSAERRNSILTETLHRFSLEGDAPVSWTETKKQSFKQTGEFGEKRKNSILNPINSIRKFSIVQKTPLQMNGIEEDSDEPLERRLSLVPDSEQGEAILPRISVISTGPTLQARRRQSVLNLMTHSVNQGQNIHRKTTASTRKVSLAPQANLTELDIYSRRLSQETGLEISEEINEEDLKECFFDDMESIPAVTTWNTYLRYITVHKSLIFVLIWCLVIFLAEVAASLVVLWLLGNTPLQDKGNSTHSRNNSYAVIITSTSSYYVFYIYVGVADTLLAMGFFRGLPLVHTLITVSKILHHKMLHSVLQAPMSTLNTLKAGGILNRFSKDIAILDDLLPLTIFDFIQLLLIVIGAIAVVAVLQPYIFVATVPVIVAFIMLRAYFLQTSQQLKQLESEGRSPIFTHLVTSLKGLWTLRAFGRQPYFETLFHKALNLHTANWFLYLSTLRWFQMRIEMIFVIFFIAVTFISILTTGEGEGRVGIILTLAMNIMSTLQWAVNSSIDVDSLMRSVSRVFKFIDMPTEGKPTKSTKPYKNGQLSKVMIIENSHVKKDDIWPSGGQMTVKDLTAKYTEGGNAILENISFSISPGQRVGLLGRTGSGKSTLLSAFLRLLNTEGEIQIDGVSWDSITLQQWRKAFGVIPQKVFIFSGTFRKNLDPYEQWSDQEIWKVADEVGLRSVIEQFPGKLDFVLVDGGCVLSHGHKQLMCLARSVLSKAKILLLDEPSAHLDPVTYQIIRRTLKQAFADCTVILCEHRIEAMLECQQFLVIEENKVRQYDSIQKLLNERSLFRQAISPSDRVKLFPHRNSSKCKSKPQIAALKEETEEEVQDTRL

As to `COc1ccc(C2(C(=O)Nc3ncc(Sc4ccc(N)cc4)s3)CC2)cc1` [Example 96], the “% Activity / % Efficacy (relative efficacy)” value is given as “++ (“++” means between 25% to 100%)” and the EC50 was under 10 µM.
In the same order, the values of `COc1ccc(C2(C(=O)Nc3ncc(Sc4cccc(C(=O)O)c4)s3)CC2)cc1` [Example 97] are “+++ (“+++” means>100%)” and under 10 µM.
Consider `Nc1ccccc1Sc1cnc(NC(=O)C2(c3ccc4c(c3)OCO4)CC2)s1` [Example 98], for which the “% Activity / % Efficacy (relative efficacy)” value is on record as “+++ (“+++” means>100%)” and the EC50 is under 10 µM.
Regarding `COc1ccccc1Sc1cnc(NC(=O)C2(c3ccc4c(c3)OCO4)CC2)s1` [Example 99], the “% Activity / % Efficacy (relative efficacy)” value was “+++ (“+++” means>100%)” and the concentration for a half-maximal effect (EC50) was under 10 µM.
For `Nc1ccc(Sc2cnc(NC(=O)C3(c4ccc5c(c4)OCO5)CC3)s2)cc1` [Example 100], the “% Activity / % Efficacy (relative efficacy)” value is reported as “++ (“++” means between 25% to 100%)” and the EC50 is under 10 µM.
For `O=C(O)c1ccccc1Sc1cnc(NC(=O)C2(c3ccc4c(c3)OCO4)CC2)s1` [Example 101], the “% Activity / % Efficacy (relative efficacy)” value is reported as “+++ (“+++” means>100%)” and the EC50 was under 10 µM.
As to `O=C(Nc1ncc(Sc2cccc(Cl)c2)s1)C1(c2ccc3c(c2)OCO3)CC1` [Example 102], the half-maximal effective concentration (EC50) is under 10 µM and the Emax was over 100%.
As for `O=C(Nc1ncc(Sc2ccc(Cl)cc2)s1)C1(c2ccc3c(c2)OCO3)CC1` [Example 103], the “% Activity / % Efficacy (relative efficacy)” value is reported as “++ (“++” means between 25% to 100%)” and the half-maximal effective concentration (EC50) was 25 to 60 µM.
As to `COc1ccc(C2(C(=O)Nc3ncc(Sc4ccccc4C(=O)O)s3)CC2)cc1` [Example 104], the “% Activity / % Efficacy (relative efficacy)” value was “+++ (“+++” means>100%)” and the EC50 is under 10 µM.
Taken in the same sequence, the figures for `O=C(Nc1ncc(Sc2ccccc2)s1)C1(c2ccc3c(c2)OCO3)CC1` [Example 105] were “+++ (“+++” means>100%)” and under 10 µM.
In the case of `O=C(O)c1cccc(Sc2cnc(NC(=O)C3(c4ccc5c(c4)OCO5)CC3)s2)c1` [Example 106], the “% Activity / % Efficacy (relative efficacy)” value is recorded as “+++ (“+++” means>100%)” and the EC50 is under 10 µM.
In the same order, the values of `CC(=O)c1sc(NC(=O)C2(c3ccc4c(c3)OCO4)CC2)nc1C` [Example 107] are “+++ (“+++” means>100%)” and under 10 µM.
As to `CCCc1nc(NC(=O)C2(c3ccc4c(c3)OCO4)CC2)sc1C(=O)OCC` [Example 108], the concentration for a half-maximal effect (EC50) is under 10 µM and the Emax is over 100%.
For the molecule `CCOC(=O)c1sc(NC(=O)C2(c3ccc4c(c3)OCO4)CC2)nc1C(C)C` [Example 109], the “% Activity / % Efficacy (relative efficacy)” value is “+++ (“+++” means>100%)” and the EC50 is under 10 µM.
For `O=C(Nc1nc2c(s1)-c1ccccc1CC2)C1(c2ccc3c(c2)OCO3)CC1` [Example 110], the “% Activity / % Efficacy (relative efficacy)” value was “+++ (“+++” means>100%)” and the concentration giving a half-maximal response (EC50) was under 10 µM.
Turning to `O=C(Nc1ncc(C2(c3ccccc3)CCCC2)s1)C1(c2ccc3c(c2)OCO3)CC1` [Example 111], the “% Activity / % Efficacy (relative efficacy)” value is given as “+++ (“+++” means>100%)” and the EC50 was under 10 µM.
Consider `COc1ccccc1-c1csc(NC(=O)C2(c3ccc4c(c3)OCO4)CC2)n1` [Example 112], for which the “% Activity / % Efficacy (relative efficacy)” value is recorded as “+ (“+” means<25%)” and the half-maximal effective concentration (EC50) fell in the range of 10 to 25 µM.
On to `COc1ccc(OC)c(-c2csc(NC(=O)C3(c4ccc5c(c4)OCO5)CC3)n2)c1` [Example 113], for which the “% Activity / % Efficacy (relative efficacy)” value is “+++ (“+++” means>100%)” and the concentration for a half-maximal effect (EC50) is under 10 µM.
Taken in the same sequence, the figures for `COc1cccc(-c2csc(NC(=O)C3(c4ccc5c(c4)OCO5)CC3)n2)c1` [Example 114] were “+++ (“+++” means>100%)” and under 10 µM.
With `O=C(Nc1nc(-c2ccc(Cl)c(Cl)c2)cs1)C1(c2ccc3c(c2)OCO3)CC1` [Example 117], the EC50 lay within 10 to 25 µM and the Emax is 25 to 100%.
In the case of `CS(=O)(=O)c1ccc(-c2csc(NC(=O)C3(c4ccc5c(c4)OCO5)CC3)n2)cc1` [Example 119], the “% Activity / % Efficacy (relative efficacy)” value was “++ (“++” means between 25% to 100%)” and the EC50 was under 10 µM.
Taken in the same sequence, the figures for `CCN(CC)c1ccc(-c2csc(NC(=O)C3(c4ccc5c(c4)OCO5)CC3)n2)cc1` [Example 120] were “+++ (“+++” means>100%)” and under 10 µM.
For `COc1ccc(C2(C(=O)Nc3nc(-c4ccccc4OC)cs3)CC2)cc1` [Example 121], the EC50 is under 10 µM and the Emax was over 100%.
Turning to `COc1ccc(C2(C(=O)Nc3nc(-c4cccc(OC)c4)cs3)CC2)cc1` [Example 122], the “% Activity / % Efficacy (relative efficacy)” value is reported as “+++ (“+++” means>100%)” and the EC50 is under 10 µM.
Taken in the same sequence, the figures for `COc1ccc(C2(C(=O)Nc3nc(-c4cccc(Cl)c4)cs3)CC2)cc1` [Example 123] were “+++ (“+++” means>100%)” and under 10 µM.
For `COc1ccc(C2(C(=O)Nc3nc(-c4ccc(Cl)c(Cl)c4)cs3)CC2)cc1` [Example 124], the “% Activity / % Efficacy (relative efficacy)” value is recorded as “++ (“++” means between 25% to 100%)” and the concentration giving a half-maximal response (EC50) lay in the range of 25 to 60 µM.
Regarding `COc1ccc(C2(C(=O)Nc3nc(-c4ccc(S(C)(=O)=O)cc4)cs3)CC2)cc1` [Example 125], the “% Activity / % Efficacy (relative efficacy)” value is on record as “+++ (“+++” means>100%)” and the concentration for a half-maximal effect (EC50) is under 10 µM.
In the same order, the values of `O=C(Nc1nc(-c2ccc(Cl)cc2Cl)cs1)C1(c2ccc3c(c2)OCO3)CC1` [Example 126] are “+++ (“+++” means>100%)” and under 10 µM.
In the same order, the values of `Cc1ccc(-c2csc(NC(=O)C3(c4ccc5c(c4)OCO5)CC3)n2)c(C)c1` [Example 127] are “+++ (“+++” means>100%)” and under 10 µM.
Take `O=C(Nc1ncc(C(SCCCCO)c2ccccc2Cl)s1)C1(c2ccc3c(c2)OCO3)CC1` (centres unmarked) [Example 131]: the EC50 was under 10 µM.
Regarding `O=C(c1cnc(NC(=O)C2(c3ccc4c(c3)OCO4)CC2)s1)c1ccccc1Cl` [Example 136], the “% Activity / % Efficacy (relative efficacy)” value was “+++ (“+++” means>100%)” and the EC50 was under 10 µM.
Taken in the same sequence, the figures for `COc1ccc(C2(C(=O)Nc3ncc(Cc4cccc(Cl)c4)o3)CC2)cc1` [Example 153] were “++ (“++” means between 25% to 100%)” and under 10 µM.
As to `COc1ccc(C2(C(=O)Nc3ncc(Cc4ccccc4OC)o3)CC2)cc1` [Example 156], the EC50 was under 10 µM and the Emax was over 100%.
Consider `O=C(Nc1ncc(Cc2cccc(F)c2Cl)s1)C1(c2ccc3c(c2)OCO3)CC1` [Example 159], for which the “% Activity / % Efficacy (relative efficacy)” value was “+++ (“+++” means>100%)” and the EC50 is under 10 µM.
For the molecule `O=C(Nc1ncc(Cc2cccc(Cl)c2)o1)C1(c2ccc3c(c2)OCO3)CC1` [Example 166], the “% Activity / % Efficacy (relative efficacy)” value is “+++ (“+++” means>100%)” and the 50% effective concentration (EC50) was under 10 µM.
Taken in the same sequence, the figures for `COc1ccccc1Cc1cnc(NC(=O)C2(c3ccc4c(c3)OCO4)CC2)o1` [Example 169] were “++ (“++” means between 25% to 100%)” and under 10 µM.
